Experimental data published in patent US4962108A, “Antibacterial quinoline compounds” (Warner-Lambert Company, priority 1988, dated 1990).
≈ marks a conversion by molar mass, not a printed value. Where two headings read alike, the source gives them in different places.

Columns and labels:
Test in all cases: in vitro antibacterial activity, microtitration dilution method
Format in all cases: cell-based
Escherichia coli Vogel = details: read-out: minimal inhibitory concentration (MIC)
Source text: (§1) The compounds of the invention display antibacterial activity when tested by the microtitration dilution method as described in Heifetz, et al, Antimicr. Agents & Chemoth., 6, 124 (1974), which is incorporated herein by reference.
(§2) By use of the above reference method, the following minimum inhibitory concentration value (MICs in μg/ml) shown in Table I were obtained for representative compounds of the invention.

Proteus rettgeri M 1771 = details: Providencia rettgeri, M1771, read-out: minimal inhibitory concentration (MIC)
Source text: as §1, §2

[1] = system: Enterobacter cloacae MA 2646
Source text: as §1, §2

[2] = system: Staphylococcus aureus H 228
Source text: (§3) Agents & Chemoth., 6, 124 (1974), which is incorporated herein by reference.

[3] = system: Streptococcus faecalis MGH-2; details: Enterococcus faecalis
Source text: as §3

[4] = system: Streptococcus pyogenes C-203
Source text: as §3

[5] = system: Staphylococcus aureus UC-76
Source text: as §3

[6] = system: Pseudomonas aeruginosa UI-18
Source text: as §3

[7] = system: Streptococcus pneumoniae SV-1
Source text: as §3

[8] = system: Klebsiella pneumoniae MGH-2
Source text: as §3

[9] = Enterobacter cloacae, MA2646, read-out: minimal inhibitory concentration (MIC)
[10] = H228, in vitro, Staphylococcus aureus H 228, read-out: minimal inhibitory concentration (MIC)
[11] = MGH2, in vitro, Streptococcus faecalis MGH-2, read-out: minimal inhibitory concentration (MIC)
[12] = C203, in vitro, Streptococcus pyogenes C-203, read-out: minimal inhibitory concentration (MIC)
[13] = UC76, in vitro, Staphylococcus aureus UC-76, read-out: minimal inhibitory concentration (MIC)
[14] = Pseudomonas aeruginosa, UI18, read-out: minimal inhibitory concentration (MIC)
[15] = SV1, in vitro, Streptococcus pneumoniae SV-1, read-out: minimal inhibitory concentration (MIC)
[16] = Klebsiella pneumoniae, MGH2, read-out: minimal inhibitory concentration (MIC)
[17] = MA2646, in vitro, Enterobacter cloacae MA 2646, read-out: minimal inhibitory concentration (MIC)
[18] = MGH2, read-out: minimal inhibitory concentration (MIC)
[19] = Staphylococcus aureus, UC76, read-out: minimal inhibitory concentration (MIC)
[20] = UI18, in vitro, Pseudomonas aeruginosa UI-18, read-out: minimal inhibitory concentration (MIC)
[21] = MGH2, in vitro, Klebsiella pneumoniae MGH-2, read-out: minimal inhibitory concentration (MIC)
[22] = Staphylococcus aureus, H228, read-out: minimal inhibitory concentration (MIC)

Row | Structure (SMILES) | MIC (Escherichia coli Vogel) | MIC (Proteus rettgeri M 1771) | MIC [1, 9] | MIC [2, 10] | MIC [3, 11] | MIC [4, 12] | MIC [5, 13] | MIC [6, 14] | MIC [7, 15] | MIC [8, 16] | MIC [1, 17] | MIC [3, 18] | MIC [5, 19] | MIC [6, 20] | MIC [8, 21] | MIC ([4]; Streptococcus pyogenes, C203, read-out: minimal inhibitory concentration (MIC)) | MIC [2, 22] | MIC ([7]; Streptococcus pneumoniae, SV1, read-out: minimal inhibitory concentration (MIC))
1 | O=C(O)c1cn(C2CC2)c2cc(N3CC4CCCC3CN4)c(F)cc2c1=O (stereo not drawn) [Example 7, 1-Cyclopropyl-7-(6,8-diazabicyclo[3.2.2]non-6-yl)-6-fluoro-1,4-dihydro-4-oxo-3-quinolinecarboxylic acid] | 0.05 µg/mL (≈ 0.135 µM) | 0.4 µg/mL (≈ 1.08 µM) | 0.05 µg/mL (≈ 0.135 µM) | 0.1 µg/mL (≈ 0.269 µM) | 0.1 µg/mL (≈ 0.269 µM) | 0.05 µg/mL (≈ 0.135 µM) | 0.025 µg/mL (≈ 0.0673 µM) | 0.4 µg/mL (≈ 1.08 µM) | 0.05 µg/mL (≈ 0.135 µM) | 0.1 µg/mL (≈ 0.269 µM) | – | – | – | – | – | – | – | –
2 | CCN[C@H]1C[C@H]2CC[C@@H](C1)N2c1c(F)cc2c(=O)c(C(=O)O)cn(C3CC3)c2c1F [Example 5c, 1-cyclopropyl-7-[3-endo(ethylamino)-8-azabicyclo[3.2.1]oct-8-yl]-6,8-difluoro-1,4-dihydro-4-oxo-3-quinolinecarboxylic acid] | 0.4 µg/mL (≈ 0.958 µM) | 3.1 µg/mL (≈ 7.43 µM) | – | 0.8 µg/mL (≈ 1.92 µM) | – | 0.4 µg/mL (≈ 0.958 µM) | – | – | 0.4 µg/mL (≈ 0.958 µM) | – | 0.4 µg/mL (≈ 0.958 µM) | 0.8 µg/mL (≈ 1.92 µM) | 0.2 µg/mL (≈ 0.479 µM) | 3.1 µg/mL (≈ 7.43 µM) | 0.8 µg/mL (≈ 1.92 µM) | – | – | –
3 | O=C(O)c1cn(C2CC2)c2c(F)c(N3CC4CCCC3CN4)c(F)cc2c1=O (stereo not drawn) [Example 2, 1-Cyclopropyl-7-(6,8-diazabicyclo[3.2.2]non-6-yl)-6,8-difluoro-1,4-dihydro-4-oxo-3-quinolinecarboxylic acid] | 0.4 µg/mL (≈ 1.03 µM) | 0.4 µg/mL (≈ 1.03 µM) | – | 0.05 µg/mL (≈ 0.128 µM) | 0.2 µg/mL (≈ 0.514 µM) | – | 0.05 µg/mL (≈ 0.128 µM) | – | 0.2 µg/mL (≈ 0.514 µM) | – | 0.1 µg/mL (≈ 0.257 µM) | – | – | 0.8 µg/mL (≈ 2.05 µM) | 0.2 µg/mL (≈ 0.514 µM) | 0.8 µg/mL (≈ 2.05 µM) | – | –
4 | CCn1cc(C(=O)O)c(=O)c2cc(F)c(N3CC4CCCC3CN4C)c(F)c21 (stereo not drawn) [Example 4, 1-Ethyl-6,8-difluoro-1,4-dihydro-7-(8-methyl-6,8-diazabicyclo[3.2.2]non-6-yl)-4-oxo-3-quinolinecarboxylic acid] | 0.8 µg/mL (≈ 2.04 µM) | 6.3 µg/mL (≈ 16.1 µM) | – | – | – | 1.6 µg/mL (≈ 4.09 µM) | 0.1 µg/mL (≈ 0.255 µM) | – | 0.8 µg/mL (≈ 2.04 µM) | – | 1.6 µg/mL (≈ 4.09 µM) | 0.8 µg/mL (≈ 2.04 µM) | – | 12.5 µg/mL (≈ 31.9 µM) | 1.6 µg/mL (≈ 4.09 µM) | – | 0.2 µg/mL (≈ 0.511 µM) | –
5 | O=C(O)c1cn(C2CC2)c2nc(N3CC4CCCC3CN4)c(F)cc2c1=O (stereo not drawn) [Example 3, 1-cyclopropyl-7-(6,8-diazabicyclo[3.2.2]non-6-yl)-6-fluoro-1,4-dihydro-4-oxo-1,8-naphthyridine-3-carboxylic acid] | 0.03 µg/mL (≈ 0.0806 µM) | 0.4 µg/mL (≈ 1.07 µM) | 0.05 µg/mL (≈ 0.134 µM) | – | 0.2 µg/mL (≈ 0.537 µM) | 0.1 µg/mL (≈ 0.269 µM) | 0.1 µg/mL (≈ 0.269 µM) | 0.4 µg/mL (≈ 1.07 µM) | 0.05 µg/mL (≈ 0.134 µM) | 0.1 µg/mL (≈ 0.269 µM) | – | – | – | – | – | – | 0.2 µg/mL (≈ 0.537 µM) | –
6 | CCN[C@@H]1C[C@H]2CC[C@@H](C1)N2c1c(F)cc2c(=O)c(C(=O)O)cn(C3CC3)c2c1F [Example 5d, 1-cyclopropyl-7-[3-exo(ethylamino)-8-azabicyclo[3.2.1]oct-8-yl]-6,8-difluoro-1,4-dihydro-4-oxo-3-quinolinecarboxylic acid] | 0.2 µg/mL (≈ 0.479 µM) | 1.6 µg/mL (≈ 3.83 µM) | – | – | 0.2 µg/mL (≈ 0.479 µM) | 0.1 µg/mL (≈ 0.24 µM) | 0.1 µg/mL (≈ 0.24 µM) | – | 0.1 µg/mL (≈ 0.24 µM) | – | 0.2 µg/mL (≈ 0.479 µM) | – | – | 3.1 µg/mL (≈ 7.43 µM) | 0.4 µg/mL (≈ 0.958 µM) | – | 0.2 µg/mL (≈ 0.479 µM) | –
7 | CCN[C@H]1C[C@H]2CC[C@@H](C1)N2c1cc2c(cc1F)c(=O)c(C(=O)O)cn2C1CC1 [Example 5f, 1-cyclopropyl-7-[3-endo(ethylamino)-8-azabicyclo[3.2.1]oct-8-yl]-6-fluoro-1,4-dihydro-4-oxo-3-quinolinecarboxylic acid] | 1.6 µg/mL (≈ 4.01 µM) | 12.5 µg/mL (≈ 31.3 µM) | – | 3.1 µg/mL (≈ 7.76 µM) | 3.1 µg/mL (≈ 7.76 µM) | 1.6 µg/mL (≈ 4.01 µM) | 0.8 µg/mL (≈ 2 µM) | – | – | – | 1.6 µg/mL (≈ 4.01 µM) | – | – | 6.3 µg/mL (≈ 15.8 µM) | 3.1 µg/mL (≈ 7.76 µM) | – | – | 1.6 µg/mL (≈ 4.01 µM)
8 | CCN[C@@H]1C[C@H]2CC[C@@H](C1)N2c1nc2c(cc1F)c(=O)c(C(=O)O)cn2C1CC1 [Example 5a, 1-cyclopropyl-7-[3-exo(ethylamino)-8-azabicyclo[3.2.1]oct-8-yl]-6-fluoro-1,4-dihydro-4-oxo-1,8-naphthyridine-3-carboxylic acid] | 0.2 µg/mL (≈ 0.499 µM) | 3.1 µg/mL (≈ 7.74 µM) | – | – | 0.4 µg/mL (≈ 0.999 µM) | 0.4 µg/mL (≈ 0.999 µM) | – | – | 0.2 µg/mL (≈ 0.499 µM) | – | 0.8 µg/mL (≈ 2 µM) | – | 0.2 µg/mL (≈ 0.499 µM) | 1.6 µg/mL (≈ 4 µM) | 0.4 µg/mL (≈ 0.999 µM) | – | 0.2 µg/mL (≈ 0.499 µM) | –
9 | CCN[C@H]1C[C@H]2CC[C@@H](C1)N2c1nc2c(cc1F)c(=O)c(C(=O)O)cn2C1CC1 [Example 5b, 1-Cyclopropyl-7-[3-endo(ethylamino)-8-azabicyclo[3.2.1]oct-8-yl]-6-fluoro-1,4-dihydro-4-oxo-1,8-naphthyridine-3-carboxylic acid] | 0.4 µg/mL (≈ 0.999 µM) | 3.1 µg/mL (≈ 7.74 µM) | – | 0.8 µg/mL (≈ 2 µM) | – | 0.4 µg/mL (≈ 0.999 µM) | 0.4 µg/mL (≈ 0.999 µM) | – | 0.4 µg/mL (≈ 0.999 µM) | – | 0.8 µg/mL (≈ 2 µM) | 0.8 µg/mL (≈ 2 µM) | – | 3.1 µg/mL (≈ 7.74 µM) | 0.8 µg/mL (≈ 2 µM) | – | – | –
10 | O=C(O)c1cn(C2CC2)c2c(Cl)c(N3CC4CCCC3CN4)c(F)cc2c1=O (stereo not drawn) [Example 8, 8-Chloro-1-cyclopropyl-7-(6,8-diazabicyclo[3.2.2]non-6-yl)-6-fluoro-1,4-dihydro-4-oxo-3-quinolinecarboxylic acid] | 0.2 µg/mL (≈ 0.493 µM) | 0.4 µg/mL (≈ 0.986 µM) | – | – | 0.2 µg/mL (≈ 0.493 µM) | 0.1 µg/mL (≈ 0.246 µM) | 0.05 µg/mL (≈ 0.123 µM) | – | 0.1 µg/mL (≈ 0.246 µM) | – | 0.2 µg/mL (≈ 0.493 µM) | – | – | 0.8 µg/mL (≈ 1.97 µM) | 0.2 µg/mL (≈ 0.493 µM) | – | 0.2 µg/mL (≈ 0.493 µM) | –
11 | CCN[C@@H]1C[C@H]2CC[C@@H](C1)N2c1cc2c(cc1F)c(=O)c(C(=O)O)cn2C1CC1 [Example 5e, 1-cyclopropyl-7-[3-exo(ethylamino)-8-azabicyclo[3.2.1]oct-8-yl]-6-fluoro-1,4-dihydro-4-oxo-3-quinolinecarboxylic acid] | 0.4 µg/mL (≈ 1 µM) | 3.1 µg/mL (≈ 7.76 µM) | – | 0.4 µg/mL (≈ 1 µM) | 0.4 µg/mL (≈ 1 µM) | 0.4 µg/mL (≈ 1 µM) | – | – | 0.2 µg/mL (≈ 0.501 µM) | – | 0.8 µg/mL (≈ 2 µM) | – | 0.2 µg/mL (≈ 0.501 µM) | 3.1 µg/mL (≈ 7.76 µM) | 0.8 µg/mL (≈ 2 µM) | – | – | –
12 | CCn1cc(C(=O)O)c(=O)c2cc(F)c(N3CC4CCCC3CN4)c(F)c21 (stereo not drawn) [Example 1, 7-(6,8-Diazabicyclo[3.2.2]non-6-yl)-1-ethyl-6,8-difluoro-1,4-dihydro-4-oxo-3-quinolinecarboxylic acid] | 0.4 µg/mL (≈ 1.06 µM) | 0.8 µg/mL (≈ 2.12 µM) | – | – | – | 1.6 µg/mL (≈ 4.24 µM) | 0.05 µg/mL (≈ 0.132 µM) | – | 0.8 µg/mL (≈ 2.12 µM) | – | 0.4 µg/mL (≈ 1.06 µM) | 0.8 µg/mL (≈ 2.12 µM) | – | 3.1 µg/mL (≈ 8.21 µM) | 0.8 µg/mL (≈ 2.12 µM) | – | 0.2 µg/mL (≈ 0.53 µM) | –
